{"source": "patent US11963961B2", "about": "“Combination therapy comprising an ACC inhibitor” (Gilead Sciences, Inc., priority 2017, dated 2024)", "key": {"[1]": {"test_system": "subjects with compensated cirrhosis due to NASH", "experiment": "Proof-of-concept study of Compound 1 in compensated cirrhosis due to NASH", "format": "in vivo, human", "protocol": "Methods: In a proof-of-concept study, 10 subjects with suspected compensated cirrhosis (Child-Turcotte-Pugh [CTP]-A) due to NASH (defined by any one of biopsy, liver stiffness by magnetic resonance elastography [MRE]≥4.67 kPa or transient elastography ≥14.0 kPa, or Fibrotest ≥0.75) received Compound 1 20 mg orally once daily for 12 weeks. Centrally-read magnetic resonance imaging-proton density fat fraction (MRI-PDFF) and MRE, and serum markers of fibrosis were measured at baseline (BL), Week 4 (W4), and Week 12 ([…]). For DNL determination, heavy water (^2H2O, 35 mL) was administered three times daily for one-week cycles prior to baseline, W4, and […]. Deuterium incorporation into palmitate was measured in fasting plasma samples by GC/MS, and mass isotopomer distribution analysis was used to calculate hepatic DNL and its inhibition by Compound 1."}, "[2]": {"test_system": "subjects with steatosis and F1-F3 fibrosis / NASH", "conditions": "Compound 1 20 mg; for ≥30% reduction in MRI-PDFF, % of subjects: 12 weeks", "protocol": "Ten subjects with steatosis (MRI-PDFF≥10%) and F1-F3 fibrosis (MRE≥2.88 kPa but non-cirrhotic based on FibroText <0.75, historical imaging and liver biopsy) were treated 20 mg Compound 1 for 12 weeks.\nFour of the ten subjects were on fish oil or fenofibrate at baseline and continued the concomitant medication for the duration of the study. Throughout the study subjects were monitored for safety (adverse events, laboratory abnormalities), liver biochemistry, serum markers of fibrosis (ELF and its components TIMP-1, hyaluronic acid, PIII-NP) and cell death (CK18 M30 and M65), liver stiffness (MRE) and fat (MRI-PDFF) and the effect on de novo lipogensis was assessed using heavy water labeling.\nThe four subjects were analyzed in conjunction with eight subjects from the study described in Example 1. These twelve subjects were on fish oil or fibrates for at least six weeks of the study and included those who were on fish oil or fibrates at baseline or who had graded hypertriglyceridemia and were given fish oil or fibrates during the study."}, "[3]": {"conditions": "split by fibrate/fish oil for > 6 weeks: without n = 47, with n = 12"}}, "note": "Like-named read-outs stand apart in the source and are kept apart here.", "data": [{"smiles": "COc1ccccc1[C@H](Cn1c(=O)n(C(C)(C)C(=O)O)c(=O)c2c(C)c(-c3ncco3)sc21)OC1CCOCC1", "note": "[Compound 1, (R)-2-(1-(2-(2-methoxyphenyl)-2-((tetrahydro-2H-pyran-4-yl)oxy)ethyl)-5-methyl-6-(oxazol-2-yl)-2,4-dioxo-1,2-dihydrothieno[2,3-d]pyrimidin-3(4H)-yl)-2-methylpropanoic acid]", "values": [{"measurement": "Asymptomatic Grade 3 hypertriglyceridemia", "setting": "[1]; Compound 1 20 mg once daily, 10 subjects, responded to fibrate therapy", "value": "One subject"}, {"measurement": "Changes in MRE-stiffness or serum fibrosis markers", "setting": "[1]; Compound 1 20 mg once daily, 12 weeks", "value": "No significant changes"}, {"measurement": "Tolerability", "setting": "[1]; Compound 1 20 mg once daily, 12 weeks, no premature discontinuation", "value": "well-tolerated"}, {"measurement": "Other lipid parameters", "setting": "[1]; Compound 1 20 mg once daily, BL to W12", "value": "unchanged"}, {"measurement": "≥30% relative decline in PDFF, % of subjects", "setting": "[1]; Compound 1 20 mg once daily, W4, 5 of 10 subjects", "value": 50, "unit": "%"}, {"measurement": "≥30% relative decline in PDFF, % of subjects", "setting": "[1]; Compound 1 20 mg once daily, W12, 7 of 10 subjects", "value": 70, "unit": "%"}, {"measurement": "Fasting triglycerides, median", "setting": "[1]; Compound 1 20 mg once daily, W12, IQR (142, 248), BL 147 (105, 231), P=0.008", "value": 159, "unit": "mg/dL"}, {"measurement": "Hepatic PDFF (MRI-PDFF), median", "setting": "[1]; Compound 1 20 mg orally once daily, W12, BL 9.2, P=0.004", "value": 4.6, "unit": "%"}, {"measurement": "Serum ALT, median", "setting": "[1]; Compound 1 20 mg orally once daily, W12, BL 46, P=0.008", "value": 32, "unit": "U/L"}, {"measurement": "≥30% reduction in MRI-PDFF, % of subjects", "setting": "[2]; all subjects (n = 59)", "value": 49, "unit": "%"}, {"measurement": "≥30% reduction in MRI-PDFF, % of subjects", "setting": "[2]; [3]", "value": 43, "unit": "%"}, {"measurement": "ALT, median relative change over 12 weeks", "setting": "[2]; all subjects (n = 59)", "value": "−21.9", "unit": "%"}, {"measurement": "ELF, median relative change over 12 weeks", "setting": "[2]; all subjects (n = 59)", "value": "−0.8", "unit": "%"}, {"measurement": "Fasting Glucose, median relative change over 12 weeks", "setting": "[2]; all subjects (n = 59)", "value": "−2.0", "unit": "%"}, {"measurement": "Hemoglobin A1c, median relative change over 12 weeks", "setting": "[2]; all subjects (n = 59)", "value": "−1.4", "unit": "%"}, {"measurement": "Hyaluronic acid, median relative change over 12 weeks", "setting": "[2]; all subjects (n = 59)", "value": "−5.9", "unit": "%"}, {"measurement": "MRE, median relative change over 12 weeks", "setting": "[2]; all subjects (n = 59)", "value": "−6.6", "unit": "%"}, {"measurement": "MRI-PDFF, median relative change over 12 weeks", "setting": "[2]; all subjects (n = 59)", "value": "−31.0", "unit": "%"}, {"measurement": "PIII-NP, median relative change over 12 weeks", "setting": "[2]; all subjects (n = 59)", "value": "−13.9", "unit": "%"}, {"measurement": "TIMP-1, median relative change over 12 weeks", "setting": "[2]; all subjects (n = 59)", "value": "−8.8", "unit": "%"}, {"measurement": "FibroScan, median relative change over 12 weeks", "setting": "[2]; all subjects, only Phase 2 study of Example 1", "value": "−11.1", "unit": "%"}, {"measurement": "ALT, median relative change over 12 weeks", "setting": "[2]; [3]", "value": "−19.4", "unit": "%"}, {"measurement": "ELF, median relative change over 12 weeks", "setting": "[2]; [3]", "value": "−0.35", "unit": "%"}, {"measurement": "Fasting Glucose, median relative change over 12 weeks", "setting": "[2]; [3]", "value": "−1.9", "unit": "%"}, {"measurement": "Hemoglobin A1c, median relative change over 12 weeks", "setting": "[2]; [3]", "value": "−1.4", "unit": "%"}, {"measurement": "Hyaluronic acid, median relative change over 12 weeks", "setting": "[2]; [3]", "value": "−4.5", "unit": "%"}, {"measurement": "MRE, median relative change over 12 weeks", "setting": "[2]; [3]", "value": "−3.2", "unit": "%"}, {"measurement": "MRI-PDFF, median relative change over 12 weeks", "setting": "[2]; [3]", "value": "−27.9", "unit": "%"}, {"measurement": "PIII-NP, median relative change over 12 weeks", "setting": "[2]; [3]", "value": "−13.9", "unit": "%"}, {"measurement": "TIMP-1, median relative change over 12 weeks", "setting": "[2]; [3]", "value": "−7.85", "unit": "%"}, {"measurement": "FibroScan, median relative change over 12 weeks", "setting": "[2]; split by fibrate/fish oil for > 6 weeks, only Phase 2 study of Example 1, n = 6 with fibrate/fish oil", "value": "−9.8", "unit": "%"}]}]}
